Assay results published in patent US20050064382A1, “Method of prevention of lysosomal leakage in eukaryotic cells by using 6-methyluracil based water-soluble compounds and method of producing thereof” (priority 2002, published 2005).

Columns and labels:
[1] = tested on: Mouse erythroleukemia (MEL) cells; assay: Growth activity following maximal cell damage (two freeze/thaw cycles, 10% DMSO); assay type: cell-based
Method: Mouse erythroleukemia (MEL) cells were damaged from exposure to two freeze/thaw cycles. The cells were then grown in the presence of 10% dimethylsulfoxide (DMSO), a substance known to damage cell membranes. […] The cells were then subjected to two freeze/thaw cycles (the cells were quickly brought to −135° C., incubated for 1 hour at −135° C. and quickly thawed to 100% humidity and 37° C.). The cell concentration was then determined by counting, using a hematocytometer. The experiments were done in duplicate.

THP-1 cells = assay: DMSO shock of THP-1 cells, percentage of dead cells; assay type: cell-based, human
Method: Cells were incubated in the presence of 10% DMSO at 37° C. for 90 minutes (tryptan-blue test).

[2] = tested on: Human umbilical cord vein endothelial cells (HUCVEC); assay: HUCVEC Assays 2 and 3: starvation; assay type: cell-based; conditions: 11 days without change of medium
Method: Glucural was also tested on two primer cell cultures for protection against cell death in sub-optimal conditions.
Human umbilical cord vein endothelial cells (HUCVEC) were isolated from freshly obtained human umbilical cords in accordance with known methods. HUCVEC were grown in multi-well plates. After saturation of the wells, the assays were initiated. Four wells were used for each experimental group. To cause “mechanical” damage, a higher (2-2½ times) centrifugal speed was used to pick up cells after trypsin treatment. To cause enzymatic damage, full-strength trypsin solution was used instead of the recommended diluted concentration. All assays were started from the last change of medium in wells with saturated cell culture (well bottoms were covered completely by cells). Results were estimated from the percentage of the bottom covered by cells on the last day of the assay.
Assay 2 and 3. Starvation—cell growth without change of medium during 11 days. Assays 2 and 3 were performed using two different HUCVEC isolations.

[3] = tested on: neurons from rat embryos brains; assay: Survival of rat embryo brain neurons after mechanical damage; assay type: cell-based; conditions: for number of live neurons vs culture without Glucural: 500 mkg/ml
Text: One particularly attractive application of the cytoprotective quality of 6-methyluracil compounds is to extend the life span of primer cell cultures. Primer cell cultures are cell cultures obtained from various tissues. They are used routinely for new drug screening in pharmaceutical industry. The problem associated with many primer cell cultures is their general inability to propagate and grow, leading to their early death and therefore limiting their use in drug research. For example, a rat embryo brain neuron cell culture has about 80% mortality in 12-14 days.
The following is an example of the difficulty in maintaining the survival rate of primer cell cultures. […] The term “growing” of these primer cell cultures means maintaining their survival for a 10-15 day period. But these cell cultures are very valuable as test objects and are commonly used for the initial testing of new drugs (drug screening). Glucural was tested on the neurons from rat embryos brains that were transferred into cell cultures. The viability of these neurons was tested during 2 stages of the production of embryonic neuron cell cultures: 1) mechanical disassembly and washing, and 2) the “growing” of the cell culture.
After 7 days, this ratio increased to nearly triple as shown on FIGS. 1 and 2.

Shelf life = assay type: physicochemical; conditions: ambient temperatures

Substance: complex of 2,4-dihydroxy-6-methylpyrimidine with N-methyl-D-glucamine [Glucural]
- The number of cells per 1 ml ([1]; Glucural 5 mkg/ml): 0 ×10^4
- The number of cells per 1 ml ([1]; Glucural 10 mkg/ml): 0 ×10^4
- The number of cells per 1 ml ([1]; Glucural 25 mkg/ml): 53 ± 7 ×10^4
- The number of cells per 1 ml ([1]; Glucural 50 mkg/ml): 107 ± 7 ×10^4
- percentage of dead THP-1 cells (THP-1 cells; Control + Glucural 25 mkg/ml, assay 1): 3.9 ± 0.7%
- percentage of dead THP-1 cells (THP-1 cells; Control + Glucural 25 mkg/ml, assay 2): 5.8 ± 3.1%
- percentage of dead THP-1 cells (THP-1 cells; Control + Glucural 25 mkg/ml, assay 4): 3.0 ± 1.0%
- percentage of dead THP-1 cells (THP-1 cells; DMSO shock (10% DMSO, 37° C., 90 minutes) + Glucural 25 mkg/ml, assay 1): 4.1 ± 1.6%
- percentage of dead THP-1 cells (THP-1 cells; DMSO shock (10% DMSO, 37° C., 90 minutes) + Glucural 25 mkg/ml, assay 2): 7.7 ± 3.4%
- percentage of dead THP-1 cells (THP-1 cells; DMSO shock (10% DMSO, 37° C., 90 minutes) + Glucural 25 mkg/ml, assay 3): 4.6 ± 2.2%
- percentage of dead THP-1 cells (THP-1 cells; DMSO shock (10% DMSO, 37° C., 90 minutes) + Glucural 25 mkg/ml, assay 4): 5.0 ± 2.3%
- Percent of well-bottoms covered by cells ([2]; Assay 2, Glucural 300 mkg/ml): 70-80%
- Percent of well-bottoms covered by cells ([2]; Assay 2, Glucural 400 mkg/ml): 80-90%
- Percent of well-bottoms covered by cells ([2]; Assay 2, Glucural 500 mkg/ml): 80-90%
- Percent of well-bottoms covered by cells ([2]; Assay 3, Glucural 300 mkg/ml): 100%
- Percent of well-bottoms covered by cells ([2]; Assay 3, Glucural 400 mkg/ml): 100%
- Percent of well-bottoms covered by cells ([2]; Assay 3, Glucural 500 mkg/ml): 100%
- increase of life span of rat embryo brain neuron cell culture [3]: more than two fold
- number of live neurons vs culture without Glucural ([3]; after 7 days): nearly triple
- number of live neurons vs culture without Glucural ([3]; after one day): more than double
- shelf life (Shelf life): more than 10 years
